“Also recorded” adds a separate entry of the source. Like-named read-outs stand apart in the source and are kept apart here. Marks after values point to notes of the source that are not given here.
Columns and labels:
Beagle dogs [1] = tested on: Beagle dogs
[2] = Anesthetic effects in rats, bolus IV (LORR model of general anesthesia); format: in vivo, rat; settings: male, Sprague-Dawley, rat, in vivo, read-out: MTD (maximum tolerated dose)
Description: (§1) Also measured was minimum dose to achieve LORR and maximum tolerated dose (MTD).
(§2) The ranges of doses studied were 2, 3, 4, 7, 14 and 21 mg/kg for Compound 1 and 3.5, 4.0, 7.0 and 14.0 mg/kg for […].

male Sprague-Dawley rats = assay: as above; format: in vivo, rat; settings: for deaths / production of LORR by dose: 6 rats per dose group; for deaths: dose as stated
Description: as §1, §2

Beagle dogs [3] = assay: Hemodynamic effects (blood pressure) in beagle dogs, bolus IV; format: in vivo, dog; settings: for MAP % change from baseline: 4 min after bolus IV
Description: The study was a crossover design. […] The MTD was defined as the dose that reduced mean arterial blood pressure (MAP) by 50% or to less than 50 millimeters of mercury (mmHg or mm Hg). All animals received supplemental oxygen and, if needed, ventilatory support after 4 min of apnea.
Hemodynamic data, such as mean arterial pressure (MAP), were recorded at baseline, 1, 2, 4, 8, 15, 20 and 30 min. Compound 1 was administered at 5, 10, 15 and 30 mg/kg to 6, 4, 3 and 3 dogs respectively. […] Data were analyzed with a 2-way ANOVA followed by t-test with Bonferroni correction for multiple comparisons.

pig = assay: Test B. Anesthetized Pig Model (hemodynamic profile); format: in vivo; settings: equi-anesthetic doses (3 mg/kg vs propofol 6 mg/kg), FIGS. 1 and 2
Description: The hemodynamic profile of a compound of the invention can be determined using standard pharmacological models which are well known to the art. The hemodynamic and anesthetic profiles of a compound of the invention were evaluated simultaneously using an anesthetized pig model (as described in Test B below). In this assay, the hemodynamic profile of a compound of the invention was compared to that of propofol at equi-anesthetic doses.
Test B. Anesthetized Pig Model
The anesthetic induction will be performed using a modification of a technique described by Ko et al (Ko et al., Lab Anim Sci 1993; 43: 476-80) for swine (Telazol, xylazine and ketamine given as an intramuscular injection). […]
A pilot dose-finding study will be performed to establish an appropriate infusion dose for each agent. […] Blood samples (1 mL each) may be collected at pre-dose and at 2, 4, 6, 8, 10, 12, 15, 20, 22, […], 25, 35, 50, 65 and 80 minutes after the start of the first infusion for pharmacokinetic purposes; EEG will be recorded continuously as the primary pharmacodynamic endpoint. […]
The EEG signal will be fed to a BIS analyzer (Aspect Medical) which provides continuous output of processed EEG data. The output consists of a “BIS” number calculated by a proprietary algorithm that ranges between 100 (fully conscious) and 0 (isoelectric) and indicates brain activity. […]

[4] = Pharmacokinetic study, IV infusion in domestic pigs; format: in vivo
Description: A 0.5% Compound 1 formulation, prepared as described in Example 2 and formulated in accordance with Example 6, was administered to 6 pigs via a 20-min intravenous (IV) infusion at 0.6 mg/kg/min (12 mg/kg total dose).

Male descented ferrets [5] = assay: Anti-emetic activity in ferrets (morphine sulfate-induced emesis); format: in vivo, ferret; settings: 6 ferrets, 45 min observation
Description: (§3) Male descented ferrets weighing 1.0-1.5 kg with vascular access ports in the jugular vein were housed on a 12/12-hour light/dark cycle under controlled temperature, with food and water provided ad libitum. On each study day, food was presented to ferrets one hour prior to dosing. Immediately prior to dosing, food and water were removed. A 1% Compound 1 formulation, prepared as described in Example 2 and formulated in accordance with Example 5, or […] was administered by IV infusion to the ferrets; see Wynn R L et al, 1993, Eur J Pharmacol 241, 42 re […] administration in ferrets. After administration of Compound 1 or […], animals were placed in clean, transparent cages (with lids) and left unrestrained for a 45-min observation period by an observer blinded to the specific treatment administered.
(§4) Episodes of retching and/or vomiting were considered separate episodes when the interval between retches and/or vomits exceeded 5 sec.
After termination of the infusion, 0.5 mg/kg morphine sulfate was administered subcutaneously and the ferrets were monitored for 45 min as described above. Six additional ferrets were administered subcutaneously 0.5 mg/kg morphine sulfate only.

Male Sprague Dawley rats = assay: Test A. Loss of Righting Reflex Assay; format: in vivo, rat; settings: for duration of anesthesia (loss of the Righting Reflex): 7 mg/kg bolus in tail vein, 1% formulation
Description: The ability of a compound of the invention to produce a sedative or hypnotic effect can be determined using standard pharmacological models which are well known to the art.
Test A. Loss of Righting Reflex Assay
Male Sprague Dawley rats were restrained in a holder and injection test compounds were injected in the tail vein (based on mg test compound/kg body weight). Following administration, the rats were placed in dorsal recumbent position on a heating blanket. The time to onset for the loss of the Righting Reflex (RR-ability of rat to right itself) was recorded, as was the duration of the loss of the RR.

Male descented ferrets [6] = assay: Pro-emetic activity in ferrets; settings: 6 ferrets, IV infusion 15 min at 1 mg/kg/min, 45 min observation
Description: as §3, §4

[7] = Aqueous phase concentration in lipid emulsion (pain on injection surrogate), ultrafiltration + LC/MS/MS; format: physicochemical; settings: for reduction in aqueous phase concentration compared to propofol in identical formulations: 1% lipid emulsions formulated per Example 5; for aqueous phase concentration: aqueous phase of 1% lipid emulsion separated by ultrafiltration
Description: The concentration of Compound 1 in the aqueous phase (aqueous phase concentration) of a lipid emulsion formulation was determined.
A one percent (1%) Compound 1 formulation was formulated in accordance with Example 5, Compound 1 being prepared as described in Example 2.

[8] = tested on: commercial farm-bred swine; assay: Hemodynamic effects, blood gas and serum chemistry in anesthetized ventilated pigs, IV infusion; format: in vivo, pig
Description: Anesthesia was induced with isoflurane. Intravascular access was obtained from an ear vein. Each pig was intubated and mechanically ventilated.
ECG was monitored throughout the study. […] Body temperature was maintained at 37° C.
Arterial blood gas samples from pigs infused with Compound 1 were taken and analyzed for blood gas and serum chemistry values.

[9] = tested on: commercial farm-bred swine; format: in vivo, pig; settings: pigs, 0.6 mg per kg per min
Description: Experiments were performed on commercial farm-bred swine of either sex (mean weight 33.6 kg). Anesthesia was induced with isoflurane. Intravascular access was obtained from an ear vein. Each pig was intubated and mechanically ventilated. Tissue oxygenation was monitored using continuous pulse oximetry placed on the tongue. Ventilation was monitored using an inspired/expired gas analyzer that measured oxygen, carbon dioxide, and potent inhalation agent concentrations. Ventilator settings were adjusted as needed to maintain steady state.
ECG was monitored throughout the study. Arterial blood pressure was monitored through the cannulated left femoral artery. MAP, systolic and diastolic arterial pressures and heart rate were collected every 5 seconds. An internal jugular vein was cannulated with a pulmonary artery catheter for thermodilution estimates of cardiac output and blood temperature. Body temperature was maintained at 37° C.

[10] = 15 min IV infusion at 1 mg/kg/min then 0.5 mg/kg morphine sulfate s.c.
[11] = morphine sulfate 0.5 mg/kg subcutaneously alone

| Compound | MTD [2] | HD50 (dose required to cause 50% of the rats to lose righting reflex) (male Sprague-Dawley rats) | HD7 min (dose required to produce 7 minutes of anesthesia) (male Sprague-Dawley rats) | TI (therapeutic index; ratio of MTD to HD7 min) (male Sprague-Dawley rats) | deaths (male Sprague-Dawley rats) | MAP % change from baseline (Beagle dogs [3]; 10 mg/kg) | MAP % change from baseline (Beagle dogs [3]; 15 mg/kg) | MAP % change from baseline (Beagle dogs [3]; 30 mg/kg) | duration of anesthesia (sleep time) (Beagle dogs [1]; dog, in vivo, iv, 5 mg/kg) | duration of anesthesia (sleep time) (Beagle dogs [1]; dog, in vivo, iv, 10 mg/kg) | duration of anesthesia (sleep time) (Beagle dogs [1]; dog, in vivo, iv, 15 mg/kg) | duration of anesthesia (sleep time) (Beagle dogs [1]; dog, in vivo, iv, 30 mg/kg) | production of LORR by dose (male Sprague-Dawley rats) | duration of anesthesia (loss of the Righting Reflex) (Male Sprague Dawley rats) | aqueous phase concentration [7] | also measured |
| --- | --- | --- | --- | --- | --- | --- | --- | --- | --- | --- | --- | --- | --- | --- | --- | --- |
| CC[C@H](C)c1cccc(C(C)C)c1O [(S)-(+)-2-sec-butyl-6-isopropylphenol] | 21 mg/kg | 5 mg/kg | 6.7 mg/kg | 3.1 | One of six rats died when administered 28 mg/kg | +3% | +1% | −33% |  |  |  |  |  |  |  | duration of anesthesia (sleep time) (Beagle dogs [1]; dogs, bolus IV, 5 mg/kg): 12 min; duration of anesthesia (sleep time) (Beagle dogs [1]; dogs, bolus IV, 10 mg/kg): 33 min; duration of anesthesia (sleep time) (Beagle dogs [1]; dogs, bolus IV, 15 mg/kg): 50 min; duration of anesthesia (sleep time) (Beagle dogs [1]; dogs, bolus IV, 30 mg/kg): 56 min |
| CC[C@@H](C)c1cccc(C(C)C)c1O [Compound 1, (R)-(−)-2-sec-butyl-6-isopropylphenol] | 14 mg/kg | 2.3 mg/kg | 3.4 mg/kg | 4.1 | Three rats died when administered 21 mg/kg | 5% | −19% | −41% | 23 min | 33 min | 40 min | 71 min | LORR at all doses of at least 3 mg/kg | 14.9 min | 1.78 ± 0.17 µg/mL | hemodynamic profile vs. propofol (pig): improved hemodynamic profile; anesthetic depth by Cumulative sedation scores (Beagle dogs [1]; dog, in vivo): approximately equipotent anesthetic depth; duration of anesthesia (sleep time) compared with propofol (Beagle dogs [1]; dog, in vivo, iv): similar; effect on BIS compared with propofol (Beagle dogs [1]; dog, in vivo, iv): greater effect on BIS at doses of at least 15 mg/kg; metabolic pathway [4]: glucuronidation in the 1-position with the 4-position being subject to hydroxylation followed by glucuronide and sulfate conjugation; Clearance ([4]; IV infusion): exceeded estimated hepatic blood flow; retches in the presence of morphine (Male descented ferrets [5]; [10]): 47; vomits in the presence of morphine (Male descented ferrets [5]; [10]): 1; hypnotic potency compared to propofol (Male Sprague Dawley rats; Test A): more potent than propofol; episodes of vomiting or retching, drug administered alone (Male descented ferrets [6]): did not produce any episodes of vomiting or retching; reduction in aqueous phase concentration compared to propofol in DIPRIVAN ([7]; 1% Compound 1 formulation vs DIPRIVAN): 57%; reduction in aqueous phase concentration compared to propofol in identical formulations [7]: 72%; reduction in aqueous phase concentration compared to propofol in identical formulations ([7]; listed as (R)-(−)-2-sec-butyl-6-isopropylphenol): more than 70%; metabolic alterations (arterial blood gas and serum chemistry) ([8]; IV infusion 0.6 mg/kg/min): did not produce any significant metabolic alterations; IV infusion time producing maximal suppression of BIS (<10) [9]: 17.3 ± 1.9 min |
| CN1CC[C@]23c4c5ccc(O)c4O[C@H]2[C@@H](O)C=C[C@H]3[C@H]1C5.O=S(=O)(O)O [Morphine sulfate, reference compound] |  |  |  |  |  |  |  |  |  |  |  |  |  |  |  | episodes of vomiting (Male descented ferrets [5]; [11]): 15; retches (Male descented ferrets [5]; [11]): 157 |
| CC(C)c1cccc(C(C)C)c1O [propofol, 2,6-diisopropylphenol, reference compound] | < 14 mg/kg |  |  | <2 |  | −22% | −32% | −66%* | 13 min | 28 min | 43 min | 69 min | no LORR in 4 of 6 rats tested at 3.5 mg/kg | 7.1 min | 6.28 ± 0.41 µg/mL | dogs reaching the MTD (MAP reduced by 50% or to less than 50 mmHg) (Beagle dogs [1]; dog, in vivo, iv, 15 mg/kg): Two of 3 dogs; effect on MAP, comparison (Beagle dogs [3]; bolus IV): significantly greater effect on MAP than does Compound 1; also recorded: significantly greater effect on MAP than did (S)-(+)-2-sec-butyl-6-isopropylphenol; decrease in MAP, comparison ([8]; IV infusion, Compound 1 0.6 mg/kg/min vs propofol 0.750 mg/kg/min, FIG. 3): significantly larger decrease in MAP than Compound 1; lowest HR measured, comparison ([8]; IV infusion, Compound 1 0.6 mg/kg/min vs propofol 0.750 mg/kg/min, FIG. 4): significantly lower than the lowest HR measured for Compound 1 |
